Assay results reported in publication PMC9602571, “Discovery of a Dual SENP1 and SENP2 Inhibitor” (International Journal of Molecular Sciences, 2022).
Where two headings read alike, the source gives them in different places.

Columns and labels:
SENP1 = biological target: T1, SENP1 (Homo sapiens, UniProt Q9P0U3); experiment: Fluorogenic SENP1 assay, SUMO1-AMC substrate; type: biochemical; details: for LE (ligand efficiency): calculated: 1.4(-logIC50)/N; for reduced inhibition by a factor: compared to hit compound 11
T1 construct: Human recombinant, His6-SENP1 Catalytic Domain; His6 (N); purchased Boston Biochem (Bio-Techne AG) E-700
T1 sequence (Q9P0U3 450-613 limits assumed): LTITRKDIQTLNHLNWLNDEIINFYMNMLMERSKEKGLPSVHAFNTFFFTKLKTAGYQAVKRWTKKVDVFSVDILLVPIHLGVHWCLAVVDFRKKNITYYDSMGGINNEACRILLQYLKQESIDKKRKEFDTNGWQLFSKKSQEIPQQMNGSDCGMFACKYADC
Method: Human recombinant, His6-SENP1 Catalytic Domain (Boston Biochem Cat# E-700, Bio-Techne AG, Zug, Switzerland) was prepared in reaction buffer (50 mM HEPES, 150 mM NaCl, 0.5 mM EDTA, 1 mM DTT, pH 7.5, 0.01% CHAPS). To this solution, a 20 mM or 50 mM inhibitor stock solution in DMSO was added and the mixture was incubated for 15 min at ambient temperature. […] The slope was calculated using Excel and the curve fits were performed using GraphPad Prism7 with a four-parameter least-squares fit. The final reaction conditions contained 0.02 nM SENP1 and 300 nM SUMO1/2 or 3-AMC).

[1] = SUMO1-AMC 300 nM, 0.02 nM SENP1, interval in parentheses, read-out: IC50 SENP1
[2] = screening library samples, SUMO1-AMC, read-out: IC50 SENP1 of hit molecules

Row | IC50 (SENP1; [1]) [µM] | LE (ligand efficiency) (SENP1) | melting point | Structure (SMILES) | further results
1 | 198 | 0.32 | 224 to 227 °C (dec.) | COc1ccc2c(c1)NC1(CCCC1)C(=O)N2 [Compound 39, 7′-Methoxy-3′,4′-dihydro-1′H-spiro[cyclopentane-1,2′-quinoxalin]-3′-one] | –
2 | 61 | 0.33 | 147 to 149 °C | COC(=O)c1cccc2c1NC(=O)C1(CCCC1)N2 [Compound 38, Methyl 3′-oxo-3′,4′-dihydro-1′H-spiro[cyclopentane-1,2′-quinoxaline]-5′-carboxylate] | –
3 | 153 | – | – | CC1(C)C(=O)Nc2ccccc2N1C(=O)CN1CCc2ccccc21 [Compound S4] | –
4 | 23 | – | 256 °C (dec.) | O=C(Cn1cc(-c2ccccc2)nn1)N1c2ccccc2NC(=O)C12CCCC2 [Compound 44, 1′-[2-(4-Phenyl-1H-1,2,3-triazol-1-yl)acetyl]-3′,4′-dihydro-1′H-spiro[cyclopentane-1,2′-quinoxalin]-3′-one] | –
5 | 110 | 0.34 | 176 to 180 °C | COc1cccc2c1NC(=O)C1(CCCC1)N2 [Compound 37, 5′-Methoxy-3′,4′-dihydro-1′H-spiro[cyclopentane-1,2′-quinoxalin]-3′-one] | –
6 | > 200 | – | – | O=C(Cn1cc(C2CC2)nn1)N1c2ccccc2NC(=O)C12CCCC2 [Compound 51, 1′-[2-(4-Cyclopropyl-1H-1,2,3-triazol-1-yl)acetyl]-3′,4′-dihydro-1′H-spiro[cyclopentane-1,2′-quinoxalin]-3′-one] | –
7 | 19 | – | 205 °C (dec.) | O=C(Cn1cc(C2CCCCC2)nn1)N1c2ccccc2NC(=O)C12CCCC2 [Compound 45, 1′-[2-(4-Cyclohexyl-1H-1,2,3-triazol-1-yl)acetyl]-3′,4′-dihydro-1′H-spiro[cyclopentane-1,2′-quinoxalin]-3′-one] | –
8 | 7.5 | – | 263 °C (dec.) | COC(=O)c1ccc(-c2cn(CC(=O)N3c4ccccc4NC(=O)C34CCCC4)nn2)cc1 [Compound 48, Methyl 4-[1-(2-oxo-2-{3′-oxo-3′,4′-dihydro-1′H-spiro[cyclopentane-1,2′-quinoxalin]-1′-yl}ethyl)-1H-1,2,3-triazol-4-yl]benzoate] | –
9 | > 100 | – | – | COCCc1cn(CC(=O)N2c3ccccc3NC(=O)C23CCCC3)nn1 [Compound 53, 1′-{2-[4-(2-Methoxyethyl)-1H-1,2,3-triazol-1-yl]acetyl}-3′,4′-dihydro-1′H-spiro[cyclopentane-1,2′-quinoxalin]-3′-one] | –
10 | > 200 | – | – | COc1ccc(N(C)CC(=O)N2c3ccccc3NC(=O)C2(C)C)cc1 [Compound S7] | –
11 | 61 | 0.39 | – | O=C1Nc2cscc2NC12CCCCC2 [Compound 36, 3′,4′-Dihydro-1′H-spiro[cyclohexane-1,2′-thieno [3,4-b]pyrazin]-3′-one] | –
12 | 38 | – | 203 °C (dec.) | O=C(Cn1cc(Cc2ccccc2)nn1)N1c2ccccc2NC(=O)C12CCCC2 [Compound 46, 1′-[2-(4-Benzyl-1H-1,2,3-triazol-1-yl)acetyl]-3′,4′-dihydro-1′H-spiro[cyclopentane-1,2′-quinoxalin]-3′-one] | –
13 | 29 | – | 272 °C (dec.) | O=C(O)c1cccc(-c2cn(CC(=O)N3c4ccccc4NC(=O)C34CCCC4)nn2)c1 [Compound 47, 3-[1-(2-Oxo-2-{3′-oxo-3′,4′-dihydro-1′H-spiro[cyclopentane-1,2′-quinoxalin]-1′-yl}ethyl)-1H-1,2,3-triazol-4-yl]benzoic acid] | –
14 | 13 | – | 249 °C (dec.) | COc1ccc(-c2cn(CC(=O)N3c4ccccc4NC(=O)C34CCCC4)nn2)cc1 [Compound 49, 1′-{2-[4-(4-Methoxyphenyl)-1H-1,2,3-triazol-1-yl]acetyl}-3′,4′-dihydro-1′H-spiro[cyclopentane-1,2′-quinoxalin]-3′-one] | –
15 | > 100 | – | 230 °C (dec.) | O=C(O)Cc1cn(CC(=O)N2c3ccccc3NC(=O)C23CCCC3)nn1 [Compound 52, 2-[1-(2-Oxo-2-{3′-oxo-3′,4′-dihydro-1′H-spiro[cyclopentane-1,2′-quinoxalin]-1′-yl}ethyl)-1H-1,2,3-triazol-4-yl]acetic acid] | –
16 | 67 | 0.34 | 275 to 278 °C | O=C1Nc2cc([N+](=O)[O-])ccc2NC12CCCC2 [Compound 41, 6′-Nitro-3′,4′-dihydro-1′H-spiro[cyclopentane-1,2′-quinoxalin]-3′-one] | –
17 | > 200 | – | 218 °C (dec.) | O=C(Cn1cc(-c2ccccn2)nn1)N1c2ccccc2NC(=O)C12CCCC2 [Compound 50, 1′-{2-[4-(Pyridin-2-yl)-1H-1,2,3-triazol-1-yl]acetyl}-3′,4′-dihydro-1′H-spiro[cyclopentane-1,2′-quinoxalin]-3′-one] | SENP1 inhibition in words (SENP1; at 200 µM): only slight inhibition
18 | 6.6 | – | 67 to 70 °C | CCCCCCCC(=O)N1c2ccccc2NC(=O)C12CCCC2 [Compound 57, 1′-Octanoyl-3′,4′-dihydro-1′H-spiro[cyclopentane-1,2′-quinoxalin]-3′-one] | –

The remaining lines, values behind:

Row | Structure (SMILES) | IC50 (SENP1; [1]) [µM] | LE (ligand efficiency) (SENP1) | melting point | further results
19 | CN(CC(=O)N1c2ccccc2NC(=O)C1(C)C)Cc1ccccc1 [Compound S5] | > 200 | – | – | –
20 | CC1(C)C(=O)Nc2ccccc2N1C(=O)CN1CCN(c2ccccc2)CC1 [Compound S2] | 101 | – | – | –
21 | O=C1CN(C(=O)Cn2nnc(-c3ccccc3)n2)c2ccccc2N1 [Compound 24, 4-[2-(5-Phenyl-2H-1,2,3,4-tetrazol-2-yl)acetyl]-1,2,3,4-tetrahydroquinoxalin-2-one] | 77.6 | – | 231 °C (dec.) | reduced inhibition by a factor (SENP1): 10
22 | O=C1Nc2ccccc2NC12CCC2 [Compound 29, 3′,4’-Dihydro-1′H-spiro[cyclobutane-1,2′-quinoxalin]-3′-one] | 66 | 0.42 | – | –
23 | O=C(CN1CCN(c2ccccc2)CC1)N1c2ccccc2NC(=O)C12CCCC2 [Compound S1] | 152 | – | – | –
24 | CN(CC(=O)N1c2ccccc2NC(=O)C1(C)C)c1ccccc1 [Compound S6] | > 200 | – | – | –
25 | O=C1Nc2ccccc2NC12CCCC2 [Compound 15, 3′,4′-Dihydro-1′H-spiro[cyclopentane-1,2′-quinoxalin]-3′-one] | 116 | 0.37 | 174 °C | –
26 | CC1(C)C(=O)Nc2ccccc2N1C(=O)Cn1nnc(-c2ccccc2)n1 [Compound 23, 3,3-Dimethyl-4-[2-(5-phenyl-2H-1,2,3,4-tetrazol-2-yl)acetyl]-1,2,3,4-tetrahydroquinoxalin-2-one] | 12.3 | – | 252 °C (dec.) | reduced inhibition by a factor (SENP1): 1.5
27 | Cc1c(C(=O)N2CCC(C)CC2)nnn1-c1cccc2c1CCN(Cc1ccccc1)C2 [Compound 12] | – | – | – | IC50 (SENP1; [2]): 27 µM
28 | CC1(C)Nc2ccccc2NC1=O [Compound 16, 3,3-Dimethyl-1,2,3,4-tetrahydroquinoxalin-2-one] | > 500 | – | 178 °C | inhibition at 500 µM (SENP1): ~50%
29 | O=C1NC2(CCCC2)Nc2ccccc21 [Compound 32, 3′,4′-Dihydro-1′H-spiro[cyclopentane-1,2′-quinazolin]-4′-one] | – | – | 233 to 238 °C (dec.) | –
30 | CC1(C)C(=O)Nc2ccccc2N1C(=O)COc1ccccc1 [Compound S3] | > 200 | – | – | –
31 | O=C1Nc2ccccc2OC12CCCC2 [Compound 26, 3,4-Dihydrospiro [1,4-benzoxazine-2,1′-cyclopentan]-3-one] | 78 | 0.38 | 157 to 162 °C | –
32 | CC1CCn2cc(C(=O)NC3CCn4cc(-c5ccc(F)cc5F)nc4C3)nc2C1 (stereo not drawn) [Compound 13] | – | – | – | IC50 (SENP1; [2]): 28 µM
33 | O=C1Nc2ccccc2NC12CCCCC2 [Compound 27, 3′,4′-Dihydro-1′H-spiro[cyclohexane-1,2′-quinoxalin]-3′-one] | 261 | 0.31 | 230 to 234 °C (dec.) | –
34 | O=C1Nc2cscc2NC12CCCC2 [Compound 35, 3′,4′-Dihydro-1′H-spiro[cyclopentane-1,2′-thieno [3,4-b]pyrazin]-3′-one] | 37 | 0.44 | 126 to 130 °C (dec.) | –
35 | O=C1Nc2ccccc2NC12CCOCC2 [Compound 31, 3′,4′-Dihydro-1′H-spiro[oxane-4,2′-quinoxalin]-3′-one] | 233 | 0.32 | 211 to 226 °C (dec.) | –
36 | O=C1Nc2ncccc2NC12CCCC2 [Compound 34, 3′,4′-Dihydro-1′H-spiro[cyclopentane-1,2′-pyrido [2,3-b]pyrazin]-3′-one] | > 500 | – | – | SENP1 activity in words (SENP1; up to 500 µM): complete loss of activity
37 | c1ccc2c(c1)NCC1(CCCC1)N2 [Compound 33, 3′,4′-Dihydro-1′H-spiro[cyclopentane-1,2′-quinoxaline]] | > 500 | – | 80 to 82 °C | –
38 | O=C1CNc2ccccc2N1 [Compound 25, 1,2,3,4-tetrahydroquinoxalin-2-one] | > 500 | – | – | –
39 | O=C1Nc2ccccc2NC12CCCCCCC2 [Compound 28, 3′,4′-Dihydro-1′H-spiro[cyclooctane-1,2′-quinoxalin]-3′-one] | 51 | 0.33 | – | –
